Key:
[1] = molecular target: T1, HiBit-BRG1 fusion protein in stable HeLa cell line expressing HiBit-BRG1 and LgBit (Homo sapiens, UniProt P51532); assay: HiBiT-BRG1 cell-based degradation assay (Nano-Glo HiBiT, 24 h); settings: HeLa HiBit-BRG1/LgBit cells; for DC50: read-out: BRMG1 HiBit Degradation IC50; for Dmax: top dose 30 μM, read-out: BRG1 HiBit Degradation Maximum (%)
T1 construct: expressed in transfected cells
Procedure, shortened: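 Degradation calculated from NanoBiT luminescence relative to DMSO-treated cells (high) and cells given 2 μM known BRM/BRG1 degrader (low). HeLa cells stably expressing HiBiT-BRG1 plus LgBiT were exposed to compound for 24 h before lytic HiBiT detection.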

[2] = molecular target: T2, HiBiT-BRM fusion protein in stable HeLa cell line (Homo sapiens, UniProt P51531); assay: HiBiT-BRM cell-based degradation assay (Nano-Glo HiBiT Lytic Detection, 24 h); design: DC50: scale not given here; settings: HeLa HiBiT-BRM cells; for DC50: read-out: BRM HiBit Degradation IC50; for BRM HiBit Degradation Maximum (%): top dose 30 μM
T2 construct: expressed in transfected cells
Procedure, shortened: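 HeLa stably expressing HiBiT-BRM; 24 h compound exposure, 10-pt 3-fold dilution from 30 μM final, duplicates. Lytic LgBiT complementation, luminescence. % degradation vs DMSO (HC) and 2 μM known BRM/BRG1 degrader (LC).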

T1 sequence (P51532 whole entry, the tested form may be a part): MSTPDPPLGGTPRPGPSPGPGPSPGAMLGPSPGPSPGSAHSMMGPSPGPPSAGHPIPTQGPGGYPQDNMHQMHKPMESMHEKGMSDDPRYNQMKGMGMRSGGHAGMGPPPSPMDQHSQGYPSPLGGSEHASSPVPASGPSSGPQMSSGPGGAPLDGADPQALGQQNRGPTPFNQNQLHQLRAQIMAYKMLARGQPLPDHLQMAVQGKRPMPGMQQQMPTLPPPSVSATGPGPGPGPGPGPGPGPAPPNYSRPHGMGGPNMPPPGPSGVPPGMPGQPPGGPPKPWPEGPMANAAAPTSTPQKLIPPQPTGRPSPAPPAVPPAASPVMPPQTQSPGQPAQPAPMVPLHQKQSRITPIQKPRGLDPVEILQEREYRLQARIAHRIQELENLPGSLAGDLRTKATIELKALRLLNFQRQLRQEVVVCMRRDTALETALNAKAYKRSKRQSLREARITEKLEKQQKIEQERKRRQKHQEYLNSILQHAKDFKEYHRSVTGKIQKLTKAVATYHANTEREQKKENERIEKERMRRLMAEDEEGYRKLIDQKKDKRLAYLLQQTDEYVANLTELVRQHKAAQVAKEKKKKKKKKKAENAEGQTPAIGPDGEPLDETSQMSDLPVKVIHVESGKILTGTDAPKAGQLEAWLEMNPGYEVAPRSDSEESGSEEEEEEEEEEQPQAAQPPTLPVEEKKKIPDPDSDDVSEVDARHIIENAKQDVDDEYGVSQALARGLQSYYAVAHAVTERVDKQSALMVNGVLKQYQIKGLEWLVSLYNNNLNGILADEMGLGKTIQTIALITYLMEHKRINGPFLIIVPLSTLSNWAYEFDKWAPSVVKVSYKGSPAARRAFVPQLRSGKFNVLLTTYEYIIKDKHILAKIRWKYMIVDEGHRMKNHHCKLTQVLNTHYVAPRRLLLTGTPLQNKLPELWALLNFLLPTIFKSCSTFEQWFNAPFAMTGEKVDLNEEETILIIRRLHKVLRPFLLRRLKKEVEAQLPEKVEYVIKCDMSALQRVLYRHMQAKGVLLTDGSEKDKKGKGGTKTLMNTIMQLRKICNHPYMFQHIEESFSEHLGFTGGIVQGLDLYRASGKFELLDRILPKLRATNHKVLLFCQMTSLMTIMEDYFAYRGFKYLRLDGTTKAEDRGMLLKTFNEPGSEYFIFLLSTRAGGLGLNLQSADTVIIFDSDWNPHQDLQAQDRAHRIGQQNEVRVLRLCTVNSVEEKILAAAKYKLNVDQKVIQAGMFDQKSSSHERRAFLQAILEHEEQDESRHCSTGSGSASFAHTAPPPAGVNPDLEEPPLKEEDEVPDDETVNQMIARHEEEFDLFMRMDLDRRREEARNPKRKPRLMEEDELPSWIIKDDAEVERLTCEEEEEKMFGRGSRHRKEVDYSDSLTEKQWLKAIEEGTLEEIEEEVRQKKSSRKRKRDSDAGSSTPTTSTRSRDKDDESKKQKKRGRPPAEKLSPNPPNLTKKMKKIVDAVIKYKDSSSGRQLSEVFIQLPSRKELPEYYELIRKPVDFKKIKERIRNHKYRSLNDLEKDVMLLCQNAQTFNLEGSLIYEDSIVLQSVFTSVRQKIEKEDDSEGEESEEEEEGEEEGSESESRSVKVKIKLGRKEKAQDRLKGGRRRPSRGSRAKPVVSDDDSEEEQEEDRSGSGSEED
T2 sequence (P51531 whole entry, the tested form may be a part): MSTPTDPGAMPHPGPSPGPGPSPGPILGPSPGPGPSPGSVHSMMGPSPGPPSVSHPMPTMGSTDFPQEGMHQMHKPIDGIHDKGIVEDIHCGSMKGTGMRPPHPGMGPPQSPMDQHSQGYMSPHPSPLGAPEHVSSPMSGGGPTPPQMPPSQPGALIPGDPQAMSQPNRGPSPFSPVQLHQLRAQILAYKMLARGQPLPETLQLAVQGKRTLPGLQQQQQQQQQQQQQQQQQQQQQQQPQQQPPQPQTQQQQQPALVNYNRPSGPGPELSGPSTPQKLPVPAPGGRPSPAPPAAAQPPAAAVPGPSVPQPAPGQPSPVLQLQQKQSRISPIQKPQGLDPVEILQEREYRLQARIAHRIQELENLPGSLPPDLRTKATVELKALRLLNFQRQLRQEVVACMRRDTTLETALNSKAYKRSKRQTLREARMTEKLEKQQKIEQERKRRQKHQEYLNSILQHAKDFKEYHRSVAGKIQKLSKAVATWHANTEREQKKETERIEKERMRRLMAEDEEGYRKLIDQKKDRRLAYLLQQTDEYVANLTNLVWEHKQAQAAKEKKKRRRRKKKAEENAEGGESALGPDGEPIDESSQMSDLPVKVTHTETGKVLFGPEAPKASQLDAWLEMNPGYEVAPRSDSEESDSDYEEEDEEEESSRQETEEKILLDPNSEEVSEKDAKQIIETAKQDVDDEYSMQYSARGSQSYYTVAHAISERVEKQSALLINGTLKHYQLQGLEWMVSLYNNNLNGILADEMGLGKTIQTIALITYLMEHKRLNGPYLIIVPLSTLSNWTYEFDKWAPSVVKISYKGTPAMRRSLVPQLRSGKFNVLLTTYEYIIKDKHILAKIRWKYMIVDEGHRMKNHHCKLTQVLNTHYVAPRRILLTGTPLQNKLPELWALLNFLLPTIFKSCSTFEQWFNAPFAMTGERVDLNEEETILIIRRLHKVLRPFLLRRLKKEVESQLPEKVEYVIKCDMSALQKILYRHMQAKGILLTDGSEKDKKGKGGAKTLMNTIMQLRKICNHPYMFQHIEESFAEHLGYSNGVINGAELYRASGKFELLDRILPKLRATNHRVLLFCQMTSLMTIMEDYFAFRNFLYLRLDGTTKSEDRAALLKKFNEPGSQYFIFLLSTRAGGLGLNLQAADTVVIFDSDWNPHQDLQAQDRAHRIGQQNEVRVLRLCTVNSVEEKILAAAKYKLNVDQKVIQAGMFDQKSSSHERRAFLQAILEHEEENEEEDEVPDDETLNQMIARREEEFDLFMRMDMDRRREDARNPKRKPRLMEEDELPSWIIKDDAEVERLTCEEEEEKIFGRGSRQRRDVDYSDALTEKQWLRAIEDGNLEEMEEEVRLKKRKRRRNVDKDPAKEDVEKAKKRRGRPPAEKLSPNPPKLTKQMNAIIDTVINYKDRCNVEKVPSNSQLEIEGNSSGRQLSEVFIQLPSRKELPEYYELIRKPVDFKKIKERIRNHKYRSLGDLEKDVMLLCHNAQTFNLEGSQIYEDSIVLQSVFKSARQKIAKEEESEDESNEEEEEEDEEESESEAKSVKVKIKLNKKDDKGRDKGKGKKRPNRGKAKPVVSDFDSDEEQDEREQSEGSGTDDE

| Structure (SMILES) | DC50 [1] [nM] | Dmax [1] [%] | DC50 [2] [nM] | BRM HiBit Degradation Maximum (%) [2] |
| --- | --- | --- | --- | --- |
| Cc1ncsc1-c1ccc([C@H](C)NC(=O)[C@@H]2C[C@@H](O)CN2C(=O)[C@H](C(C)C)n2cc(-c3cc4cc(-c5ccccc5O)nnc4cc3F)nn2)cc1 [Compound 176, (2S,4R)-1-((S)-2-(4-(7-fluoro-3-(2-hydroxyphenyl)cinnolin-6-yl)-1H-1,2,3-triazol-1-yl)-3-methylbutanoyl)-4-hydroxy-N-((S)-1-(4-(4-methylthiazol-5-yl)phenyl)ethyl)pyrrolidine-2-carboxamide] | < 10 | > 75 | < 10 | A (“A” indicates maximum degradation ≥75%) |
| C#Cc1ccc(CNC(=O)[C@@H]2C[C@@H](O)CN2C(=O)[C@H](C(C)C)n2cc(N3CC4(CN(c5ccc6cc(-c7ccccc7O)nnc6c5)C4)C3)nn2)c(Cl)c1 [Compound 223, (2S,4R)—N-[(2-chloro-4-ethynylphenyl)methyl]-4-hydroxy-1-[(2S)-2-(4-{6-[3-(2-hydroxyphenyl)cinnolin-7-yl]-2,6-diazaspiro[3.3]heptan-2-yl}-1,2,3-triazol-1-yl)-3-methylbutanoyl]pyrrolidine-2-carboxamide] |  | > 50 | < 10 | A (“A” indicates maximum degradation ≥75%) |
| Cc1ncsc1-c1ccc([C@H](C)NC(=O)[C@@H]2C[C@@H](O)CN2C(=O)[C@@H](c2cc(N3CC4(C3)CN(c3cc5cc(-c6ccccc6O)nnc5cc3C(F)F)C4)no2)C(C)C)cc1 [Compound 164, (2S,4R)-1-((R)-2-(3-(6-(7-(difluoromethyl)-3-(2-hydroxyphenyl)cinnolin-6-yl)-2,6-diazaspiro[3.3]heptan-2-yl)isoxazol-5-yl)-3-methylbutanoyl)-4-hydroxy-N-((S)-1-(4-(4-methylthiazol-5-yl)phenyl)ethyl)pyrrolidine-2-carboxamide] | < 10 | > 75 | < 10 | A (“A” indicates maximum degradation ≥75%) |
| Cc1ncsc1-c1ccc([C@H](C)NC(=O)[C@@H]2C[C@@H](O)CN2C(=O)C(C(C)C)n2cc(N3CCC4(CCN(c5ccc6cc(-c7ccccc7O)nnc6c5)CC4)C3)nn2)cc1 (stereo partly drawn) [Compound 233, (2S,4R)-4-hydroxy-1-(2-(4-(8-(3-(2-hydroxyphenyl)cinnolin-7-yl)-2,8-diazaspiro[4.5]decan-2-yl)-1H-1,2,3-triazol-1-yl)-3-methylbutanoyl)-N-((S)-1-(4-(4-methylthiazol-5-yl)phenyl)ethyl)pyrrolidine-2-carboxamide] | < 10 | > 75 | < 10 | A (“A” indicates maximum degradation ≥75%) |
| Cc1ncsc1-c1ccc([C@H](C)NC(=O)[C@@H]2C[C@@H](O)CN2C(=O)C(C(C)C)n2cc(N3C4CCC3CN(c3ccc5cc(-c6ccccc6O)nnc5c3)C4)nn2)cc1 (stereo partly drawn) [Compound 268, (2S,4R)-4-hydroxy-1-(2-(4-(3-(3-(2-hydroxyphenyl)cinnolin-7-yl)-3,8-diazabicyclo[3.2.1]octan-8-yl)-1H-1,2,3-triazol-1-yl)-3-methylbutanoyl)-N-((S)-1-(4-(4-methylthiazol-5-yl)phenyl)ethyl)pyrrolidine-2-carboxamide] |  | < 50 | > 100 | A (“A” indicates maximum degradation ≥75%) |
| Cc1ncsc1-c1ccc([C@H](C)NC(=O)[C@@H]2C[C@@H](O)CN2C(=O)[C@@H](c2cc(N3CCC4(CC3)CN(c3ccc5nnc(-c6ccccc6O)cc5c3)CCN4C)no2)C(C)C)cc1 [Compound 165, (2S,4R)-4-hydroxy-1-((R)-2-(3-(4-(3-(2-hydroxyphenyl)cinnolin-6-yl)-1-methyl-1,4,9-triazaspiro[5.5]undecan-9-yl)isoxazol-5-yl)-3-methylbutanoyl)-N-((S)-1-(4-(4-methylthiazol-5-yl)phenyl)ethyl)pyrrolidine-2-carboxamide] | < 10 | > 75 | < 10 | A (“A” indicates maximum degradation ≥75%) |
| Cc1ncsc1-c1ccc([C@H](C)NC(=O)[C@@H]2C[C@@H](O)CN2C(=O)[C@H](c2cc(-c3cnc(N4CC(c5cc(Cl)c6cc(-c7ccccc7O)nnc6c5)C4)nc3)no2)C(C)C)cc1 [Compound 35] |  | < 50 | > 100 | B (“B” indicates maximum degradation ≥50%) |
| Cc1ncsc1-c1ccc([C@H](C)NC(=O)[C@@H]2C[C@@H](O)CN2C(=O)[C@H](C(C)C)n2cc(-c3cc4cc(-c5ccccc5O)nnc4cc3C(F)F)nn2)cc1 [Compound 171, (2S,4R)-1-((S)-2-(4-(7-(difluoromethyl)-3-(2-hydroxyphenyl)cinnolin-6-yl)-1H-1,2,3-triazol-1-yl)-3-methylbutanoyl)-4-hydroxy-N-((S)-1-(4-(4-methylthiazol-5-yl)phenyl)ethyl)pyrrolidine-2-carboxamide] | < 10 | > 75 | < 10 | A (“A” indicates maximum degradation ≥75%) |
| Cc1ncsc1-c1ccc([C@H](C)NC(=O)[C@@H]2C[C@@H](O)CN2C(=O)[C@@H](c2cc(N3CC4(CC(c5cc6nnc(-c7ccccc7O)cc6cc5C5CC5)C4)C3)no2)C(C)C)cc1 [Compound 252, (2S,4R)-1-((R)-2-(3-(6-(6-cyclopropyl-3-(2-hydroxyphenyl)cinnolin-7-yl)-2-azaspiro[3.3]heptan-2-yl)isoxazol-5-yl)-3-methylbutanoyl)-4-hydroxy-N-((S)-1-(4-(4-methylthiazol-5-yl)phenyl)ethyl)pyrrolidine-2-carboxamide] | < 10 | > 75 | < 10 | A (“A” indicates maximum degradation ≥75%) |
| Cc1ncsc1-c1ccc([C@H](C)NC(=O)[C@@H]2C[C@@H](O)CN2C(=O)[C@@H](c2cc(N3CCN4CCN(c5ccc6nnc(-c7ccccc7O)cc6c5)CC4C3)no2)C(C)C)cc1 (stereo partly drawn) [Compound 151, (2S,4R)-4-hydroxy-1-((2R)-2-(3-(8-(3-(2-hydroxyphenyl)cinnolin-6-yl)octahydro-2H-pyrazino[1,2-a]pyrazin-2-yl)isoxazol-5-yl)-3-methylbutanoyl)-N-((S)-1-(4-(4-methylthiazol-5-yl)phenyl)ethyl)pyrrolidine-2-carboxamide] |  | < 50 | < 10 | A (“A” indicates maximum degradation ≥75%) |
| Cc1ncsc1-c1ccc([C@H](C)NC(=O)[C@@H]2C[C@@H](O)CN2C(=O)C(C(C)C)n2cc(N3CCC4(CCN4c4ccc5cc(-c6ccccc6O)nnc5c4)C3)nn2)cc1 (stereo partly drawn) [Compound 264, (2S,4R)-4-hydroxy-1-(2-(4-(1-(3-(2-hydroxyphenyl)cinnolin-7-yl)-1,6-diazaspiro[3.4]octan-6-yl)-1H-1,2,3-triazol-1-yl)-3-methylbutanoyl)-N-((S)-1-(4-(4-methylthiazol-5-yl)phenyl)ethyl)pyrrolidine-2-carboxamide] |  | < 50 | > 10 | A (“A” indicates maximum degradation ≥75%) |
| Cc1ncsc1-c1ccc([C@H](C)NC(=O)[C@@H]2C[C@@H](O)CN2C(=O)C(C(C)C)n2cc(N3CCC4(CC3)CN(c3ccc5cc(-c6ccccc6O)nnc5c3)C4)nn2)cc1 (stereo partly drawn) [Compound 197, (2S,4R)-4-hydroxy-1-(2-(4-(2-(3-(2-hydroxyphenyl)cinnolin-7-yl)-2,7-diazaspiro[3.5]nonan-7-yl)-1H-1,2,3-triazol-1-yl)-3-methylbutanoyl)-N-((S)-1-(4-(4-methylthiazol-5-yl)phenyl)ethyl)pyrrolidine-2-carboxamide] | < 10 | > 75 | < 10 | A (“A” indicates maximum degradation ≥75%) |
| C#Cc1ccc(CNC(=O)[C@@H]2C[C@@H](O)CN2C(=O)[C@H](C(C)C)n2cc(N3CC4(CN(c5ccc6cc(-c7ccccc7O)nnc6c5)C4)C3)nn2)cc1 [Compound 255, (2S,4R)-N-(4-ethynylbenzyl)-4-hydroxy-1-((S)-2-(4-(6-(3-(2-hydroxyphenyl)cinnolin-7-yl)-2,6-diazaspiro[3.3]heptan-2-yl)-1H-1,2,3-triazol-1-yl)-3-methylbutanoyl)pyrrolidine-2-carboxamide] |  | < 50 | < 10 | A (“A” indicates maximum degradation ≥75%) |
| CC(C)[C@@H](C(=O)N1C[C@H](O)C[C@H]1C(=O)N[C@@H](C)c1ccc(F)cc1)c1cc(N2CC3(CN(c4ccc5cc(-c6ccccc6O)nnc5c4)C3)C2)no1 [Compound 89, (2S,4R)-N-((S)-1-(4-fluorophenyl)ethyl)-4-hydroxy-1-((R)-2-(3-(6-(3-(2-hydroxyphenyl)cinnolin-7-yl)-2,6-diazaspiro[3.3]heptan-2-yl)isoxazol-5-yl)-3-methylbutanoyl)pyrrolidine-2-carboxamide] |  | < 50 | < 10 | A (“A” indicates maximum degradation ≥75%) |
| Cc1ncsc1-c1ccc([C@H](C)NC(=O)[C@@H]2C[C@@H](O)CN2C(=O)[C@@H](c2cc(N3CC4(CCN(c5ccc6cc(-c7ccccc7O)nnc6c5)CC4)C3)no2)C(C)C)cc1 [Compound 95, (2S,4R)-4-hydroxy-1-((R)-2-(3-(7-(3-(2-hydroxyphenyl)cinnolin-7-yl)-2,7-diazaspiro[3.5]nonan-2-yl)isoxazol-5-yl)-3-methylbutanoyl)-N-((S)-1-(4-(4-methylthiazol-5-yl)phenyl)ethyl)pyrrolidine-2-carboxamide] | < 10 | > 75 | < 10 | A (“A” indicates maximum degradation ≥75%) |
